Consider 1 molecule from paper PMC3929971 (Chemistry (Weinheim an der Bergstrasse, Germany), 2013).

The target of this experiment is T1, Mtb MraY (phospho-MurNAc-pentapeptide translocase, translocase I) (Mycobacterium tuberculosis, UniProt P9WMW7).
T1 sequence (P9WMW7 1-359): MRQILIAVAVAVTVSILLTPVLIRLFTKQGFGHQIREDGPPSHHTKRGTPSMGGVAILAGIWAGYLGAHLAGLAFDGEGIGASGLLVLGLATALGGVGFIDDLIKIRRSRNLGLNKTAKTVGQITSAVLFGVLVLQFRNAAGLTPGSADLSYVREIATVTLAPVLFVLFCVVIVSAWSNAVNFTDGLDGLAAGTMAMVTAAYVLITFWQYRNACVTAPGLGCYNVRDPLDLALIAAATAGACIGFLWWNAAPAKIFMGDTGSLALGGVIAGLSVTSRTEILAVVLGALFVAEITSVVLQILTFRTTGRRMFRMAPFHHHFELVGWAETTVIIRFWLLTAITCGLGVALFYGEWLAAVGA
The experiment is described as follows: MraY enzyme inhibition. The experiment is classed as biochemical.

As usually defined, the pIC50 is the IC50 on a negative log10 scale, so that one unit is a factor of ten. Higher therefore signals a small IC50.

pIC50: −log10 of the molar value.

Consider `CO[C@H]1[C@@H](O)[C@H](n2ccc(=O)[nH]c2=O)O[C@@H]1[C@@H](O[C@H]1OC(C(=O)N[C@H]2CCCCNC2=O)=C[C@H](O)[C@@H]1O)C(N)=O` [compound 1, Capuramycin], for which the negative-log IC50 (pIC50) was 7.74.
